Test results as given in patent publication US20220144826A1, “Heteroaromatic and Heterobicyclic Aromatic Derivatives for the Treatment of Ferroptosis-Related Disorders” (COLLABORATIVE MEDICINAL DEVELOPMENT, LLC, priority 2019, published 2022).

System: N27 rat dopaminergic neural cells
Experiment: MTT assay in N27 rat dopaminergic neural cells: inhibition of RSL3-induced cell death (ferroptosis)
Assay type: cell-based
Conditions: Rattus norvegicus, N27, 24 h, ferroptosis induced by 0.5 μM RSL3, 24 hours, viability by MTT
Method: MTT Assay in N27 Rat Dopaminergic Neural Cells
N27 rat dopaminergic neural cells (Millipore, SCC048) were cultured in RPMI-1640 media (Wisent, 350-000) supplemented with 1×GlutaMAX (Gibco, 35050-061), 10% FBS (embryonic stem cell qualified; Wisent, 920-040), and 1× Penicillin-Streptomycin (Wisent, 450-201). Cells were grown in humidified tissue culture incubator at 37° C. with 5% CO2, for up to 10 passages. To evaluate the ability of test compounds to inhibit RSL3-induced cell death, N27 cells were seeded in clear 96-well tissue culture plates (Sarstedt, 83.3924) at a density of 15,000 cells/well. On the next day, the medium was changed to fresh complete RPMI-1640. Eight-point dilution series of test compounds were added to the cells. Then, ferroptosis was induced by addition of 0.5 μM RSL3 (vehicle-treated cells served as control). Ferrostatin-1 (Fer-1) was included in each assay as control inhibitor of ferroptosis. Plates were incubated for 24 hours at 37° C. in a tissue culture incubator, then cell viability was determined by MTT assay. Briefly, Thiazolyl Blue Tetrazolium Bromide [3-(4,5-dimethylthiazol-2-yl)-2,5-diphenyltetrazolium bromide or “MTT” ] (Sigma) stock solution (5 mg/mL in PBS, sterilized by filtration) was diluted 1:1 with complete growth medium, and added on the cells to a final concentration of 0.5 mg/mL. Cells were incubated with MTT for 4 hours at 37° C., protected from light, in a humidified, 5% CO2 atmosphere. Medium was then completely removed from the wells by gentle aspiration and converted MTT formazan crystals were dissolved in 150 μL of DMSO. Absorbance of converted dye was measured at 595 nm with background subtraction at 690 nm using the BioTek Cytation5 Microplate Reader. Blank reading (absorbance from wells containing media and vehicle only, no cells) was removed from all sample wells. Viability was calculated as a percentage of control cells (vehicle-treated cells were set as 100% viability). Dose-response curves were drawn and IC50 values were calculated using GraphPad Prism software, version 7.

Which IC50 does the source give for `CCCCC(=O)c1cc2c(c(NC(C)(C)C)n1)NCC(C(F)(F)F)C2` (stereo not shown) [Compound R-830] here?
The IC50 was 36 nM.

For `CCCC(=O)c1ccc(NC2CC(F)(F)C2)c(NC2CC(F)(F)C2)n1` [Compound P-47, 1-[5,6-bis[(3,3-difluorocyclobutyl)amino]-2-pyridyl]butan-1-one], which IC50 is on record?
The IC50 was 201 nM.

For `Cc1ccc(-c2nc3c(c(NC4CCCC4)n2)NCCC3)cc1` [Compound A-32, N-cyclopentyl-2-(p-tolyl)-5,6,7,8-tetrahydropyrido[3,2-d]pyrimidin-4-amine], which IC50 is on record?
Its IC50 is 6 nM.

How did the IC50 turn out when `CCCCC(=O)c1cc2c(c(-c3ccncc3)c1)NCCC2` [Compound Q-950, 1-[8-(4-pyridyl)-1,2,3,4-tetrahydroquinolin-6-yl]pentan-1-one] was run?
Its IC50 is greater than 3000 nM.

How did the IC50 turn out when `CCCCC(=O)c1cc2c(c(OC3CCCC3)c1)NCCC2` [Compound Q-980, 1-[8-(cyclopentoxy)-1,2,3,4-tetrahydroquinolin-6-yl]pentan-1-one] was run?
The IC50 was greater than 3000 nM.

For `N#Cc1nc2c(c(NC3CCCC3)n1)NCCC2` [Compound F-38, 4-(cyclopentylamino)-5,6,7,8-tetrahydropyrido[3,2-d]pyrimidine-2-carbonitrile], which IC50 is on record?
Its IC50 is 812 nM.

For `CCOC(=O)c1cc(N)c2c(c1)OCCN2` [Compound I-85], which IC50 is on record?
Its IC50 is greater than 1000 nM.

For `CCCCC(=O)c1cc2c(c(NC3CCCC3)n1)NCCC2` [Compound B-647, 1-[8-(cyclopentylamino)-1,2,3,4-tetrahydro-1,7-naphthyridin-6-yl]pentan-1-one], which IC50 is on record?
The IC50 was 8 nM.

Which IC50 does the source give for `CC(C)(C)C(=O)c1nc2c(c(NC3CCCC3)n1)NCCC2` [Compound A-35, 1-[4-(cyclopentylamino)-5,6,7,8-tetrahydropyrido[3,2-d]pyrimidin-2-yl]-2,2-dimethyl-propan-1-one] here?
The IC50 was 248 nM.

With `CC#Cc1nc2c(c(NC3CCCC3)n1)NCCC2` [Compound A-12, N-cyclopentyl-2-prop-1-ynyl-5,6,7,8-tetrahydropyrido[3,2-d]pyrimidin-4-amine] as the compound, how does the IC50 read?
The IC50 was 109 nM.

For `Cc1ccc(-c2ccc(NC(C)(C)C)c(NC(C)(C)C)n2)cc1` [Compound L-03, N^2,N^3-di-tert-butyl-6-(p-tolyl)pyridine-2,3-diamine], which IC50 is on record?
The IC50 was 14 nM.

How did the IC50 turn out when `CCCCC(=O)c1cc2c3c(c1)nc(C(F)(F)F)n3CCC2` [Compound B-099, 1-[2-(trifluoromethyl)-1,3-diazatricyclo[6.3.1.04,12]dodeca-2,4 (12),5,7-tetraen-6-yl]pentan-1-one] was run?
Its IC50 is greater than 3000 nM.

`CC1(Nc2nc(C(F)(F)F)ccc2NC2CCOC2)CCOC1` (stereo not shown) [Compound K-67, N^2-(3-methyltetrahydrofuran-3-yl)-N^3-tetrahydrofuran-3-yl-6-(trifluoromethyl)pyridine-2,3-diamine] was tested. Which IC50 did it give?
Its IC50 is 355 nM.

How did the IC50 turn out when `CC1(Nc2nc(-c3ccc(F)cc3)nc3c2NCCC3)CCOC1` (stereo not shown) [Compound M-14, 2-(4-fluorophenyl)-N-(3-methyltetrahydrofuran-3-yl)-5,6,7,8-tetrahydropyrido[3,2-d]pyrimidin-4-amine] was run?
Its IC50 is 29 nM.

For `CCCCC(=O)c1cc2c(c(NC3CCCC3)c1)OCCC2` [Compound B-035, 1-[8-(cyclopentylamino)-3,4-dihydro-2H-1-benzopyran-6-yl]pentan-1-one], which IC50 is on record?
The IC50 was greater than 3000 nM.

`CCCCC(O)c1nc2c(c(NC3CCCC3)n1)NCCC2` (stereo not shown) [Compound C-79, 1-[4-(cyclopentylamino)-5,6,7,8-tetrahydropyrido[3,2-d]pyrimidin-2-yl]pentan-1-ol] was tested. Which IC50 did it give?
The IC50 was 112 nM.

How did the IC50 turn out when `CC1(Nc2nc(-c3ccc(F)cc3)ccc2NC2CCC2)CCOC1` (stereo not shown) [Compound P-54, N^3-cyclobutyl-6-(4-fluorophenyl)-N^2-(3-methyltetrahydrofuran-3-yl)pyridine-2,3-diamine] was run?
Its IC50 is 3 nM.

With `COCCOc1nc2c(c(NC3CCCC3)n1)NCCC2` [Compound B-495, N-cyclopentyl-2-(2-methoxyethoxy)-5,6,7,8-tetrahydropyrido[3,2-d]pyrimidin-4-amine] as the compound, how does the IC50 read?
Its IC50 is 160 nM.

How did the IC50 turn out when `CCCCCc1nc(NC2CCCC2)c2c(n1)SCCN2` [Compound B-601, N-cyclopentyl-2-pentyl-5H,6H,7H-pyrimido[4,5-b][1,4]thiazin-4-amine] was run?
The IC50 was 3 nM.
